Experimental data taken from patent publication US11731976B2, “3-(ethoxydifluoromethyl)-6-(5-fluoro-6-(2,2,2-trifluoroethoxy)pyridin-3-yl)-[1,2,4]triazolo[4,3-a]pyridine as an ion channel modulator” (Praxis Precision Medicines, Inc., priority 2018, dated 2023).

Target: T1, human NaV1.6 (hNaV1.6) (Homo sapiens, UniProt Q9UQD0)
T1 construct: expressed in transfected cells; host or cells: HEK-293
Test: Modulation of late sodium current (INaL), PatchXpress electrophysiology, HEK-293 cells expressing hNaV1.6
Assay type: cell-based
Details: HEK293, late current evoked by 300 nM ATX-II, read-out: NaV 1.6 Assay Data: percent inhibition of INaL at hNaV1.6
Method: Functional characterization of exemplary compounds to modulate INaL expressed by the NaV1.6 voltage-gated sodium channel was accomplished using the PatchXpress™ high throughput electrophysiology platform (Molecular Devices, Sunnyvale, Calif.). HEK-293 cells expressing recombinant, human NaV1.6 (hNaV1.6) were grown in DMEM/high-glucose Dulbecco's modified, 10% FBS, 2 mM sodium pyruvate, 10 mM HEPES and 400 μg/mL G418. Cells were grown to 50%-80% confluency prior to harvesting. Trypsinized cells were washed, allowed to recover for 1 hour and then resuspended in extracellular recording solution at a concentration of 1×10^6 cells/ml. The onboard liquid handling facility of the PatchXpress was used for dispensing cells and applying test compounds. NaV late currents were evoked by the application of 300 nM ATX-II. INaL was evoked by depolarizing pulses to 0 mV for 200 ms from a non-inactivating holding potential (e.g., −120 mV) at a frequency of 0.1 Hz. INaL amplitude and stability were determined by analyzing the mean current amplitude over the final 20 ms of the test pulse. Following steady state block with exemplary compounds (e.g., as described herein), a Na+ free solution containing an impermeant cation (e.g., Choline or NDMG) was added to confirm the identify of the sodium current. Percent steady-state inhibition of INaL was calculated as: [(INaL_compound)/(INaL_control)]*100, where INaL_compound and INaL_control represent INaL recorded in the presence or absence of compound, respectively.

T1 sequence (Q9UQD0 whole entry): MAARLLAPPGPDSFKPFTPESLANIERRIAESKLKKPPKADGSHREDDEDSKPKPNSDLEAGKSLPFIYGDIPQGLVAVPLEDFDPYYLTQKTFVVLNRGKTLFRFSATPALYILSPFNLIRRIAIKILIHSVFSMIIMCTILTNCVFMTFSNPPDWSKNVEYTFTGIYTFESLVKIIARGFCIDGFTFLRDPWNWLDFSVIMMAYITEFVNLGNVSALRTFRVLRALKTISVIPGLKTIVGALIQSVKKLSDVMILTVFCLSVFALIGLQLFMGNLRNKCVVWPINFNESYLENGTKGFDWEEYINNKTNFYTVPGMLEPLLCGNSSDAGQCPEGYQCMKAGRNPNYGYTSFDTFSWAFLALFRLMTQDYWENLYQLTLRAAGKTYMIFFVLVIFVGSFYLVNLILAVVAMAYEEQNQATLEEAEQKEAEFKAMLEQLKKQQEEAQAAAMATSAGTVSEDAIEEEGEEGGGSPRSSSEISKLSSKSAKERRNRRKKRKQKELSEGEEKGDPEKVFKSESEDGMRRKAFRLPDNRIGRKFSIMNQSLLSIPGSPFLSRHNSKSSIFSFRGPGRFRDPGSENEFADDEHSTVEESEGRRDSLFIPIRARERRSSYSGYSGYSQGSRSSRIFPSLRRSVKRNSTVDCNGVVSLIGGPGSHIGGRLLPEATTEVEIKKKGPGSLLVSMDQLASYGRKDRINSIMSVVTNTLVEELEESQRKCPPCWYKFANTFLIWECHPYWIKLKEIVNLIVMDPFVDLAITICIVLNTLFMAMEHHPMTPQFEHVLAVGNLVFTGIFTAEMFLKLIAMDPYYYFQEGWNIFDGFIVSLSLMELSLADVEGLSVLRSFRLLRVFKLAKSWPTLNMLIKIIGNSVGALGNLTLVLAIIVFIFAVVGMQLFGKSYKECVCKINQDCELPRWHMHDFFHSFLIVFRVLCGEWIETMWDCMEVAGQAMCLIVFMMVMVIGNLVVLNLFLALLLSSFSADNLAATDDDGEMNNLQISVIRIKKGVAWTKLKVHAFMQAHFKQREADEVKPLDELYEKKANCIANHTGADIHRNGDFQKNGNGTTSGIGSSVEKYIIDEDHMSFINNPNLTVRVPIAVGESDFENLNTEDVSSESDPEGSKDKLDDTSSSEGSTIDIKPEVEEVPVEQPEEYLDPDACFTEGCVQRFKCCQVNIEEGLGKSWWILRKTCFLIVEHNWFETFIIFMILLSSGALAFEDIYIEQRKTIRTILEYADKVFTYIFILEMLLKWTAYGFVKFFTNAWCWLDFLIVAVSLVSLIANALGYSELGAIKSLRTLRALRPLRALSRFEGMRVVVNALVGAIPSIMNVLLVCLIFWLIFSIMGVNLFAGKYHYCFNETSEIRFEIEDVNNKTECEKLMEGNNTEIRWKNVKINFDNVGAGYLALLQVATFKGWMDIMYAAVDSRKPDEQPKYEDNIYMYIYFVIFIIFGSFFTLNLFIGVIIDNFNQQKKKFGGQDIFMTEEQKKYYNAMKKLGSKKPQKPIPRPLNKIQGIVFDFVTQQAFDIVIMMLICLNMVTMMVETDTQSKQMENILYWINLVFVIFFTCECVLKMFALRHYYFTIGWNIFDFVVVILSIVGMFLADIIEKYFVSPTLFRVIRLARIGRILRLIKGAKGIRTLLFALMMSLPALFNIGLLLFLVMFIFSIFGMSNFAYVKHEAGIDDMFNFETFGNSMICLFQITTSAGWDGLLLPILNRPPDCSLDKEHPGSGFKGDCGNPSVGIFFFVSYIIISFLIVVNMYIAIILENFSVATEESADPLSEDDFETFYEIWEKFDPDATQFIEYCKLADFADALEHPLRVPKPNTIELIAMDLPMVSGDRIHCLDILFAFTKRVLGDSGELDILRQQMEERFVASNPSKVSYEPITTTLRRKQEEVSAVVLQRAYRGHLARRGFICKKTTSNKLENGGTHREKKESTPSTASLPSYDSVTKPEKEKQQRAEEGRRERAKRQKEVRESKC

SMILES	inhibition at 1 µM [%]
COCc1nnc2ccc(-c3cnc(OC(C)(C)C(F)(F)F)c(F)c3)nn12 [Compound 27, 6-[5-fluoro-6-(2,2,2-trifluoro-1,1-dimethyl-ethoxy)-3-pyridyl]-3-(methoxymethyl)-[1,2,4]triazolo[4,3-b]pyridazine]	> 70
COCCOC(F)(F)c1nnc2cnc(-c3ccc(OCC(F)(F)F)nc3)cn12 [Compound 89]	30 to 70
COCc1nnc2ccc(-c3cnc(O[C@@H](C)C(F)(F)F)c(F)c3)nn12 [Compound 44, 6-[5-fluoro-6-[(1S)-2,2,2-trifluoro-1-methyl-ethoxy]-3-pyridyl]-3-(methoxymethyl)-[1,2,4]triazolo[4,3-b]pyridazine]	30 to 70
COCc1nnc2ccc(-c3ccc(OC(C)(C)C(F)(F)F)nc3)cn12 [Compound 87, 3-(methoxymethyl)-6-(6-((1,1,1-trifluoro-2-methylpropan-2-yl)oxy)pyridin-3-yl)-[1,2,4]triazolo[4,3-a]pyridine]	30 to 70
COCc1nnc2ccc(-c3cnc(O[C@H](C)C(F)(F)F)c(F)c3)nn12 [Compound 46, 6-[5-fluoro-6-[(1R)-2,2,2-trifluoro-1-methyl-ethoxy]-3-pyridyl]-3-(methoxymethyl)-[1,2,4]triazolo[4,3-b]pyridazine]	30 to 70
COCc1nnc2cc(C)c(-c3cnc(O[C@H](C)C(F)(F)F)c(F)c3)nn12 [Compound 72, 6-[5-fluoro-6-[(1R)-2,2,2-trifluoro-1-methyl-ethoxy]-3-pyridyl]-3-(methoxymethyl)-7-methyl-[1,2,4]triazolo[4,3-b]pyridazine]	< 30
CC(C)OC(F)(F)c1nnc2ccc(-c3cnc(OCC(F)(F)F)c(F)c3)cn12 [Compound 4, 3-[difluoro(isopropoxy)methyl]-6-[5-fluoro-6-(2,2,2-trifluoroethoxy)-3-pyridyl]-[1,2,4]triazolo[4,3-a]pyridine]	> 70
COC(F)(F)c1nnc2ccc(-c3cnc(OC4CC(F)(F)C4)c(F)c3)cn12 [Compound 84, 3-(difluoro(methoxy)methyl)-6-(6-(3,3-difluorocyclobutoxy)-5-fluoropyridin-3-yl)-[1,2,4]triazolo[4,3-a]pyridine]	> 70
CC(C)COC(F)(F)c1nnc2cnc(-c3cnc(OCC(F)(F)F)c(F)c3)cn12 [Compound 82, 3-(difluoro(isobutoxy)methyl)-6-(5-fluoro-6-(2,2,2-trifluoroethoxy)pyridin-3-yl)-[1,2,4]triazolo[4,3-a]pyrazine]	> 70
COC(F)(F)c1nnc2cnc(-c3cnc(O[C@@H](C)C(F)(F)F)c(F)c3)c(C)n12 [Compound 58, 3-[difluoro(methoxy)methyl]-6-[5-fluoro-6-[(1S)-2,2,2-trifluoro-1-methyl-ethoxy]-3-pyridyl]-5-methyl-[1,2,4]triazolo[4,3-a]pyrazine]	> 70
CC(C)OC(F)(F)c1nnc2ccc(-c3cnc(O[C@@H](C)C(F)(F)F)c(F)c3)cn12 [Compound 20, 3-[difluoro(isopropoxy)methyl]-6-[5-fluoro-6-[(1S)-2,2,2-trifluoro-1-methyl-ethoxy]-3-pyridyl]-[1,2,4]triazolo[4,3-a]pyridine]	> 70
COC(F)(F)c1nnc2cc(C)c(-c3cnc(OCC(F)(F)F)c(F)c3)nn12 [Compound 65, 3-[difluoro(methoxy)methyl]-6-[5-fluoro-6-(2,2,2-trifluoroethoxy)-3-pyridyl]-7-methyl-[1,2,4]triazolo[4,3-b]pyridazine]	30 to 70
CCOC(F)(F)c1nnc2ccc(-c3cnc(O[C@H](C)C(F)(F)F)c(F)c3)nn12 [Compound 42, 3-[ethoxy(difluoro)methyl]-6-[5-fluoro-6-[(1R)-2,2,2-trifluoro-1-methyl-ethoxy]-3-pyridyl]-[1,2,4]triazolo[4,3-b]pyridazine]	> 70
CC(C)COC(F)(F)c1nnc2ccc(-c3cnc(O[C@H](C)C(F)(F)F)c(F)c3)cn12 [Compound 23, 3-[difluoro(isobutoxy)methyl]-6-[5-fluoro-6-[(1R)-2,2,2-trifluoro-1-methyl-ethoxy]-3-pyridyl]-[1,2,4]triazolo[4,3-a]pyridine]	> 70
COC(F)(F)c1nnc2cnc(-c3ccc(OC4CC(F)(F)C4)nc3)cn12 [Compound 73, 3-(difluoro(methoxy)methyl)-6-(6-(3,3-difluorocyclobutoxy)pyridin-3-yl)-[1,2,4]triazolo[4,3-a]pyrazine]	> 70
COCc1nnc2cc(C)c(-c3cnc(OCC(F)(F)F)c(F)c3)nn12 [Compound 71, 6-[5-fluoro-6-(2,2,2-trifluoroethoxy)-3-pyridyl]-3-(methoxymethyl)-7-methyl-[1,2,4]triazolo[4,3-b]pyridazine]	< 30

Results, then the compound that gave them:

inhibition at 1 µM [%]	SMILES
> 70	COC(F)(F)c1nnc2cnc(-c3cnc(OC(C)(C)C(F)(F)F)c(F)c3)cn12 [Compound 15, 3-[difluoro(methoxy)methyl]-6-[5-fluoro-6-(2,2,2-trifluoro-1,1-dimethyl-ethoxy)-3-pyridyl]-[1,2,4]triazolo[4,3-a]pyrazine]
> 70	CCOCc1nnc2cnc(-c3cnc(OC(C)(C)C(F)(F)F)c(F)c3)cn12 [Compound 79, 3-(ethoxymethyl)-6-(5-fluoro-6-((1,1,1-trifluoro-2-methylpropan-2-yl)oxy)pyridin-3-yl)-[1,2,4]triazolo[4,3-a]pyrazine]
30 to 70	CCOCc1nnc2cnc(-c3cnc(O[C@H](C)C(F)(F)F)c(F)c3)cn12 [Compound 52, 3-(ethoxymethyl)-6-[5-fluoro-6-[(1R)-2,2,2-trifluoro-1-methyl-ethoxy]-3-pyridyl]-[1,2,4]triazolo[4,3-a]pyrazine]
> 70	COC(F)(F)c1nnc2ccc(-c3cnc(OC(C)(C)C(F)(F)F)c(F)c3)nn12 [Compound 5, 3-[difluoro(methoxy)methyl]-6-[5-fluoro-6-(2,2,2-trifluoro-1,1-dimethyl-ethoxy)-3-pyridyl]-[1,2,4]triazolo[4,3-b]pyridazine]
> 70	CCOCc1nnc2cnc(-c3cnc(O[C@@H](C)C(F)(F)F)c(F)c3)cn12 [Compound 50, 3-(ethoxymethyl)-6-[5-fluoro-6-[(1S)-2,2,2-trifluoro-1-methyl-ethoxy]-3-pyridyl]-[1,2,4]triazolo[4,3-a]pyrazine]
> 70	CCOC(F)(F)c1nnc2cnc(-c3cnc(O[C@@H](C)C(F)(F)F)c(F)c3)cn12 [Compound 33, 3-[ethoxy(difluoro)methyl]-6-[5-fluoro-6-[(1S)-2,2,2-trifluoro-1-methyl-ethoxy]-3-pyridyl]-[1,2,4]triazolo[4,3-a]pyrazine]
< 30	COCc1nnc2cnc(-c3cnc(O[C@H](C)C(F)(F)F)c(F)c3)cn12 [Compound 31, 6-[5-fluoro-6-[(1R)-2,2,2-trifluoro-1-methyl-ethoxy]-3-pyridyl]-3-(methoxymethyl)-[1,2,4]triazolo[4,3-a]pyrazine]
